Values quoted from earlier work in patent publication US4375464A, “Antibiotic AY24,668 and process of preparation” (Ayerst, McKenna & Harrison Inc., priority 1981, dated 1983).

Assays:
Candida albicans [1] = system: Candida albicans
[2] = R. R. Martel et al., Can. J. Physiol., 55, 48 (1977)
Candida albicans [3] = system: Candida albicans; remark: listed apart in the source

## CO[C@H]1C[C@@H]2CC[C@@H](C)[C@@](O)(O2)C(=O)C(=O)N2CCCC[C@H]2C(=O)O[C@H]([C@H](C)C[C@@H]2CC[C@@H](O)[C@H](OC)C2)CC(=O)[C@H](C)/C=C(\C)[C@@H](O)[C@@H](OC)C(=O)[C@H](C)C[C@H](C)/C=C/C=C/C=C/1C [rapamycin]
Candida albicans [1]
  effectiveness against Candida albicans in vitro: particularly effective
[2]
  immunosuppressant activity: immunosuppressant activity
Candida albicans [3]
  effectiveness against Candida albicans in vivo: particularly effective
